The source of these data is article PMC7617869, “Molecular glues that inhibit deubiquitylase activity and inflammatory signaling” (Nature Structural & Molecular Biology, 2025).

For test [1], the system named is NF-κB pathway in THP-1 cells. Put plainly: THP-1 NF-κB pathway SEAP reporter, lipopolysaccharide stimulation. The conditions noted are these: LPS + compound, three replicates. Type of test: cell-based, human. As to the method: THP-1 in vitro experiments
THP-1-DualTM cells (InvivoGen), derived from a human monocytic cell line, isolated from a patient with acute monocytic leukaemia, were cultured as per manufacturer’s guidance. Cells were seeded at 1x10^6 cells/mL in RPMI1640 media containing 10% fetal bovine serum (FBS), 1% penicillin-streptomycin (PS) (Gibco Laboratories) with DMSO (0.1%) (control) or in media containing JMS-175- […]
ng/mL) (Merck Life Science), ODN 2216 (1 µM) (Miltenyi Biotec), or Poly:IC (1 µg/mL) (InvivoGen).
Tofacitinib (Cambridge Biosciences) at 0.4 µM was used for comparison against a known JAK inhibitor.
Cells were centrifuged at 300 g for 5 minutes. Supernatant was removed and subjected to simultaneous study of the NF -κB pathway, by monitoring the activity of secreted alkaline phosphatase reporter (SEAP), and the IRF pathway, by assessing the activity o f a secreted Lucia luciferase using QUANTI - Blue ™ Solution and QUANTI -Luc™ 4 Lucia/Gaussia (InvivoGen), respectively, as per manufacturer’s instructions. Pelleted cells were used for FACS analysis using IFNα/β R1 APC-conjugated antibody or isotype control (Biotechne, FAB245A and IC002A), or unstained staining procedure with and without Zombie GreenTM (Biolegend). Samples were analysed using CytoFlex LX (Beckman) (50,000 live cells per condition). Median fluorescence intensity for APC channel gated on single cell live cells was analysed and compared as a percentage to control (no stimulation condition). […]

For test [2], the system named is ISG expression in MCF10A Cas9 cells expressing BRCC45 WT. Put plainly: MCF10A BRCC45 WT ISG expression (RT–qPCR). Type of test: cell-based, human. On the set-up: scale not given here. The settings on record: BRCC45 KO+ BRCC45 WT; replicate values. As to the method:
Supplementary Protocols 1. Experimental procedures for cell biology experiments. […]
Media supplements including human insulin solution (Santa Cruz Biotechnology, #sc-360248), cholera toxin from vibrio (Sigma Aldrich, #C8052-2MG), recombinant human EGF (PeproTech, #AF-100-15-100µg), hydrocortisone (Sigma-Aldrich, #H-0888) were used to grow MCF10A cells. The 4–12% Bis-Tris SDS-PAGE gels, cell culture media, horse serum and other materials for tissue culture were purchased from Invitrogen. LipoD293 (SigmaGen, #SL100668) was used for all the transfections to generate knock out cell lines.
Immortalised breast epithelial cell line MCF10A were cultured in 10 cm plates with Dulbecco’s Modified Eagle Medium (DMEM) + F-12 (1:1) supplemented with 5% horse serum, 100 ng/mL cholera toxin, 10 […]
Real-time quantitative PCR
1x10^5 MCF10A cells were cultured as described above and seeded into 6 well plates. Cells were left to reach ultra-confluence. Once confluent, cells were washed with PBS and starved for 30 minutes in 2 mL DMEM + F-12 (1:1) supplemented with 1% horse serum. After 30 minutes cells were pre-treated with either DMSO (0.1%) (Control and IFN only) or BRISC inhibitor (2.5 µM) for 15 minutes. After 15 minutes, hIFN2α (75 ng/mL) was added to the media and mixed. Cells were treated for 4 hours. Cells were washed with ice cold PBS and scraped with cell scrapers into 350 µL RNAlater buffer and RNA […]
#79254). Isolated RNA was quantified using a Nanodrop spectrophotometer. RNA was converted into cDNA and the complementary DNA was used for real-time quantitative PCR analysis of expression of interferon stimulated genes (ISG15, IFIT1, IFIT2, IFITM1, CXCL10 and RNA18S) using an Applied Biosystems Quantstudio 6 RT-PCR system. All experiments were carried out in triplicate.
(In general: In qPCR the cycle at which signal appears reflects the starting amount.)

“And” between values parts separate entries of the source, which are not always exact repeats. Identical values can stand only once.

Turning to `Cn1cc(NC(=O)c2c(Cl)cccc2Cl)c(C(=O)NC2CCN(C(=O)c3c(Cl)cccc3Cl)CC2)n1` [AP-5-145], in test [1], the “NF-κB SEAP reporter signal” value was 1.142 and 1.08 and 1.107. For the same compound, in test [2], the “ISG expression (Fig. 5b)” value is 0.8808 and 1 and 0.9871 and 1.027 and 0.974; the “ISG expression (Fig. 5c)” value was 0.8403 and 0.921 and 1.057 and 1.089 and 1.101; the “ISG expression (Fig. 5e)” value was 0.7343 and 0.7561 and 0.8094 and 1.106 and 1.138; the “ISG expression (Fig. 5f)” value was 0.7564 and 0.7183 and 0.7628 and 1.249 and 0.9766. For the same compound, the “ISG expression (Fig. 5d)” value in test [2] is 1.013 and 1.064 and 1.1762 and 1.007 and 0.9192.
Regarding `O=C(NC1C2CNCC21)c1nn(C(=O)c2c(Cl)cccc2Cl)cc1NC(=O)c1c(Cl)cccc1Cl` (stereo not drawn) [FX-171-C], the “NF-κB SEAP reporter signal” value in test [1] was 1.133 and 1.071 and 1.161. In test [2], the “ISG expression (Fig. 5b)” value is 0.4458 and 0.5019 and 0.5077 and 0.4274 and 0.4977; the “ISG expression (Fig. 5c)” value is 0.4481 and 0.428 and 0.4516 and 0.3326 and 0.4475; the “ISG expression (Fig. 5e)” value was 0.653 and 0.6751 and 0.6387 and 0.3593 and 0.4619; the “ISG expression (Fig. 5f)” value was 0.6515 and 0.6181 and 0.6111 and 0.3694 and 0.504. Further, the “ISG expression (Fig. 5d)” value in test [2] is 0.3965 and 0.3703 and 0.3895 and 0.4078 and 0.5134.
As to `O=C(NC1CCNCC1)c1nn(C(=O)c2c(Cl)cccc2Cl)cc1NC(=O)c1c(Cl)cccc1Cl` [JMS-175-2], the “NF-κB SEAP reporter signal” value in test [1] was 1.156 and 1.103 and 1.152. In addition, in test [2], the “ISG expression (Fig. 5b)” value was 0.5319 and 0.5863 and 0.5604 and 0.6288 and 0.7746; the “ISG expression (Fig. 5c)” value is 0.5095 and 0.5499 and 0.6199 and 0.6187 and 0.6726; the “ISG expression (Fig. 5e)” value was 0.6564 and 0.7321 and 0.7949 and 0.5784 and 0.6638; the “ISG expression (Fig. 5f)” value is 0.7407 and 0.6852 and 0.6633 and 0.7235 and 0.5173. The “ISG expression (Fig. 5d)” value in test [2] was 0.4933 and 0.4932 and 0.5473 and 0.4528 and 0.6627.
